Common to all, as to assay type: cell-based
For one data set, the system named is V. cholerae. As to the kind of experiment: In vitro growth inhibition of V. cholerae (MIC). The following applies: background statement for auranofin.
The test system of data set [1] is S. aureus (Oxford strain). Nature of the data set: Growth assay for S. aureus (MIC). The following applies: background statement for auranofin.
Description: Stock solution of the test compounds (20 mg/ml) in dimethyl sulfoxide (DMSO) were serially diluted in DMSO and each diluted compound added in duplicate to a 96-well plate to a final DMSO concentration of 2% (v/v). An overnight culture of S. aureus (Oxford strain) grown in tryptic soy broth (TSB) was diluted to approximately 5×10^7 cfu/ml and 150 μl of this sample was added to each well of the 96-well plates. Control wells included an ‘untreated’ control with bacteria in TSB in the presence of 2% DMSO and a negative sample (containing 150 μl TSB growth media in the presence of 2% DMSO). Plates were incubated in a shaking incubator at 37° C. for 22-24 hours and bacterial growth assessed by absorbance at a wavelength of 595 nm. The minimum inhibitory concentration (MIC) was defined as the lowest concentration of compound that inhibited growth compared to the no-treatment control.
For the next data set, the system named is K. pneumoniae 13368. As to the kind of experiment: Disk diffusion assay, multidrug resistant clinical isolate. On the procedure: (§1) The activity of test compounds against multi-drug resistant bacterial strains was assessed by the disk diffusion assay; a standardised method to assess for the antimicrobial susceptibility of microorganisms (adapted from EUCAST, Version 5, January 2015). In brief, bacterial cultures were suspended in phosphate buffer and spread evenly onto blood agar plates. Cellulose disks (5 mm) were placed onto the agar plates and 3 μl test compound (60 μg/disk) were pipetted to the centre. A panel of standard antibiotics disks (Sigma) were used to control for the antimicrobial resistance profile of the individual strains (quantity as indicated in the table). The plates were then placed into a thermo-incubator and were cultured at 37° C. over-night. Activity was recorded by measuring the zone of clearance (mm) around the disks.

For a further data set, the system named is E. coli 13400. The data set is described as above. The procedure:
as §1

The test system of the next data set is E. faecalis DSM13591. The description is as above. On the procedure: as §1
For a further data set, the system named is A. baumannii NC13421. The description is as above. The procedure: as §1
The subject of data set [2] is human hepatocyte cell line (HepG2). As to the kind of experiment: HepG2 cell inhibition assay (CCK-8 viability). Conditions: 50% growth inhibition vs untreated control, 24 hours. The procedure:
Cell counting kit-8 (Sigma, CCK-8) assays were performed to assess the effect of compounds on cell viability. The assay is based on the reduction of a water-soluble tetrazolium salt (WST-8) by cellular dehydrogenases to a formazan dye which can be detected spectroscopically. 96-well plates were seeded with the human hepatocyte cell line (HepG2) at approximately 8×10^3 cells per well in Eagle's Minimum Essential Medium (EMEM) with Earle's salts and sodium bicarbonate supplemented with 10% heat-inactivated foetal bovine serum 2 mM glutamine and 1% non-essential amino acids (NEAA). The following day serial dilutions of compounds (dissolved and diluted in DMSO) were added to the cells in duplicates. Control wells included an ‘untreated’ control where cells were grown in the presence of 1% DMSO and a ‘medium only’ control (plus 1% DMSO). After 24 hours CCK-8 reagent (10 μl) was added to each well and cell viability was assessed by measuring the absorbance at a wavelength of 450 nm after 2-3 h hours. Only living cells can reduce the tetrazolium salts into coloured formazan products. Results were expressed as 50% growth inhibition (TD50) values compared to ‘untreated’ control.

For `CC(=O)OC[C@H]1O[C@@H]([S-])[C@H](OC(C)=O)[C@@H](OC(C)=O)[C@@H]1OC(C)=O.CCP(CC)CC.[Au+]` [Auranofin], the “MIC, in vitro growth of V. cholerae” value with V. cholerae came out at 2.5 µg/mL. Also, the “MIC, in vitro growth of S. aureus (Oxford strain)” value in data set [1] was 0.6 to 0.9 µg/mL.

For `CO/N=C(\C(=O)N[C@@H]1C(=O)N2C(C(=O)O)=C(COC(C)=O)CS[C@H]12)c1csc(N)n1` [Cefotaxime], the “Size of Clearance of Zone” value in the data set on K. pneumoniae 13368 (antibiotic disk 30 μg) is “R”; in the data set on E. coli 13400 (antibiotic disk 30 μg), 18 mm; in the data set with E. faecalis DSM13591 (antibiotic disk 30 μg) it was “R”; with A. baumannii NC13421 (antibiotic disk 30 μg), “R”. With `CO/N=C(\C(=O)N[C@@H]1C(=O)N2C(C(=O)O)=C(CSc3nc(=O)c(=O)[nH]n3C)CS[C@H]12)c1csc(N)n1` [Ceftriaxone], the “Size of Clearance of Zone” value with K. pneumoniae 13368 (antibiotic disk 30 μg), in the data set with E. coli 13400 (antibiotic disk 30 μg), with E. faecalis DSM13591 (antibiotic disk 30 μg) and in the data set with A. baumannii NC13421 (antibiotic disk 30 μg) was “R” each time.

With `C[P](C)(C)=[Au][N]1CCOCC1=O` [Compound 1], in data set [2], the “HepG2 cell TD50” value was 4 µg/mL. Same read-out and setting: the value for `C[P](C)(C)=[Au][N]1CCCCC1=O` [Compound 2] was 3 µg/mL; that for `CC[P](CC)(CC)=[Au][N]1CCOCC1=O` [Compound 3] was 6 µg/mL. For `CC[N]([Au]=[P](C)(C)C)C(C)=O` [Compound 4], in data set [2], the “HepG2 cell TD50” value came out at 7 µg/mL. For `CN1CC[N]([Au]=[P](C)(C)C)C1=O` [Compound 5], the “HepG2 cell TD50” value in data set [2] stood at 6 µg/mL. `C[P](C)(C)=[Au][N]1CCN(c2ccccc2)C1=O` [Compound 6]: the “HepG2 cell TD50” value in data set [2] was 9 µg/mL. `C[P](C)(C)=[Au][N]1C(=O)CCC1=O` [Compound 7]: the “HepG2 cell TD50” value in data set [2] was found to be 11 µg/mL. Turning to `C[P](C)(C)=[Au][N]1C(=O)COCC1=O` [Compound 8], the “HepG2 cell TD50” value in data set [2] was 9 µg/mL.

With `C[P](C)(C)=[Au][N]1CCOC1=O` [Compound 9], the “HepG2 cell TD50” value in data set [2] is 7 µg/mL. For `C[P](C)(C)=[Au][N]1C(=O)c2ccccc2C1=O` [Compound 10], the “HepG2 cell TD50” value in data set [2] was found to be 15 µg/mL. Still for that read-out and setting: the value for `CC[P](CC)(CC)=[Au][N]1C(=O)c2ccccc2C1=O` [Compound 11] was 4 µg/mL; that for `C[P](C)(C)=[Au][N]1C(=O)COc2ccccc21` [Compound 12] was 4 µg/mL.

On to `C[P](C)(C)=[Au][n]1ccccc1=O` [Compound 13], for which the “HepG2 cell TD50” value in data set [2] was determined as 3 µg/mL. For `C[P](C)(C)=[Au][N]1C(=O)CCCC1=O` [Compound 14], the “HepG2 cell TD50” value in data set [2] was found to be 7 µg/mL. With `C[P](C)(C)=[Au][N]1C(=O)C2CCCN2C1=O` (stereo not shown) [Compound 15], the “HepG2 cell TD50” value in data set [2] worked out at 3 µg/mL. As to `CC1C(=O)[N]([Au]=[P](C)(C)C)C(=O)N1c1ccccc1` (stereo not shown) [Compound 16], the “HepG2 cell TD50” value in data set [2] was found to be 10 µg/mL. For the compound `CN1C(=O)[N]([Au]=[P](C)(C)C)C(=O)C1(C)C` [Compound 17], the “HepG2 cell TD50” value in data set [2] is 8 µg/mL. Turning to `C[P](C)(C)=[Au][N]1CCCOC1=O` [Compound 18], the “HepG2 cell TD50” value in data set [2] turned out to be 5 µg/mL. Regarding `CN1C(=O)[N]([Au]=[P](C)(C)C)C(=O)C12CCCC2` [Compound 19], the “HepG2 cell TD50” value in data set [2] is 13 µg/mL.

Turning to `C[P](C)(C)=[Au][N]1Cc2ccccc2C1=O` [Compound 20], the “HepG2 cell TD50” value in data set [2] is 2 µg/mL. With `C[N]([Au]=[P](C)(C)C)S(C)(=O)=O` [Compound 21], the “HepG2 cell TD50” value in data set [2] was 4 µg/mL.

Consider `C[N]([Au]=[P](C)(C)C)S(=O)(=O)c1ccccc1` [Compound 24], for which the “HepG2 cell TD50” value in data set [2] was 5 µg/mL. For the compound `C[P](C)(C)=[Au][n]1ccn(-c2ccccc2)c1=O` [Compound 25], in data set [2], the “HepG2 cell TD50” value was determined as 5 µg/mL. As to `COc1ccc(N2CC[N]([Au]=[P](C)(C)C)C2=O)cc1` [Compound 26], the “HepG2 cell TD50” value in data set [2] worked out at 6 µg/mL. Turning to `C[P](C)(C)=[Au][N]1CCN(c2ccc(F)cc2)C1=O` [Compound 27], the “HepG2 cell TD50” value in data set [2] came out at 4 µg/mL. In the case of `C[P](C)(C)=[Au][N]1CCCS1(=O)=O` [Compound 28], in data set [2], the “HepG2 cell TD50” value stood at 9 µg/mL. On to `C[P](C)(C)=[Au][N]1CCCCS1(=O)=O` [Compound 29], for which the “HepG2 cell TD50” value in data set [2] stood at 3 µg/mL. Regarding `CC1(C)OC(=O)[N]([Au]=[P](C)(C)C)C1=O` [Compound 30], the “HepG2 cell TD50” value in data set [2] turned out to be 3 µg/mL. Consider `C[P](C)(C)=[Au][N]1CCCC1=O` [Compound 31], for which the “HepG2 cell TD50” value in data set [2] stood at 3 µg/mL.

`C[P](C)(C)=[Au][n]1cccn1` [Compound 36]: the “HepG2 cell TD50” value in data set [2] was 7.3 µg/mL.

Take `C[P](C)(C)=[Au][n]1ccnn1` [Compound 37]: the “HepG2 cell TD50” value in data set [2] worked out at 11.9 µg/mL. Take `C[P](C)(C)=[Au][n]1cnnc1` [Compound 38]: the “HepG2 cell TD50” value in data set [2] came to 7 µg/mL. Still for that read-out and setting: the value for `COc1ccc2c(c1)nc[n]2[Au]=[P](C)(C)C` [Compound 39] was 9 µg/mL; that for `C[P](C)(C)=[Au][n]1cnnn1` [Compound 40] was 6 µg/mL; that for `C[P](C)(C)=[Au][n]1cc(C(F)(F)F)cn1` [Compound 41] was 16 µg/mL.

For `C[P](C)(C)=[Au][n]1ncc2cccnc21` [Compound 42], the “HepG2 cell TD50” value in data set [2] turned out to be 5 µg/mL. For the compound `C[P](C)(C)=[Au][n]1ccnc1` [Compound 43], the “HepG2 cell TD50” value in data set [2] was determined as 4 µg/mL. Take `C[P](C)(C)=[Au][n]1cnc2ccccc21` [Compound 44]: the “HepG2 cell TD50” value in data set [2] was 5 µg/mL. For `Cc1nc2ccccc2[n]1[Au]=[P](C)(C)C` [Compound 45], the “HepG2 cell TD50” value in data set [2] came to 5 µg/mL. As for `Cc1nnc(C)[n]1[Au]=[P](C)(C)C` [Compound 46], the “HepG2 cell TD50” value in data set [2] worked out at 5 µg/mL. Consider `Cc1ncc[n]1[Au]=[P](C)(C)C` [Compound 47], for which the “HepG2 cell TD50” value in data set [2] stood at 3.9 µg/mL. In the case of `C[P](C)(C)=[Au][n]1ccnc1C(F)(F)F` [Compound 48], the “HepG2 cell TD50” value in data set [2] came to 4 µg/mL. Consider `COc1ccc2c(cn[n]2[Au]=[P](C)(C)C)c1` [Compound 50], for which the “HepG2 cell TD50” value in data set [2] turned out to be 3 µg/mL.

Regarding `C[P](C)(C)=[Au][n]1cnc2cccnc21` [Compound 51], the “HepG2 cell TD50” value in data set [2] was determined as 3 µg/mL.

Consider `C[C@@H](O)[C@H]1C(=O)N2C(C(=O)O)=C(S[C@@H]3CN[C@H](C(=O)Nc4cccc(C(=O)O)c4)C3)[C@H](C)[C@H]12` [Ertapenem], for which the “Size of Clearance of Zone” value in the data set on K. pneumoniae 13368 (antibiotic disk 10 μg) was “R”; with E. coli 13400 (antibiotic disk 10 μg) it was 30 mm; with E. faecalis DSM13591 (antibiotic disk 10 μg), 14 mm; with A. baumannii NC13421 (antibiotic disk 10 μg), “R”.

For `C[C@@H](O)[C@H]1C(=O)N2C(C(=O)O)=C(SCCN=CN)C[C@H]12` [Imipenem], the “Size of Clearance of Zone” value is listed as 18 mm in the data set on K. pneumoniae 13368 (antibiotic disk 10 μg), 29 mm in the data set on E. coli 13400 (antibiotic disk 10 μg), 26 mm with E. faecalis DSM13591 (antibiotic disk 10 μg) and “R” in the data set on A. baumannii NC13421 (antibiotic disk 10 μg). As to `CC(=O)NC[C@H]1CN(c2ccc(N3CCOCC3)c(F)c2)C(=O)O1` [Linezolid], the “Size of Clearance of Zone” value with E. faecalis DSM13591 (antibiotic disk 10 μg) is 22 mm. Regarding `C[C@@H](O)[C@H]1C(=O)N2C(C(=O)O)=C(S[C@@H]3CN[C@H](C(=O)N(C)C)C3)[C@H](C)[C@H]12` [Meropenem], the results for the “Size of Clearance of Zone” value in the data set with K. pneumoniae 13368 (antibiotic disk 10 μg), in the data set on E. faecalis DSM13591 (antibiotic disk 10 μg) and in the data set with A. baumannii NC13421 (antibiotic disk 10 μg) were 22 mm, 17 mm and “R”, respectively.

`CN[C@H](CC(C)C)C(=O)N[C@H]1C(=O)N[C@@H](CC(N)=O)C(=O)N[C@H]2C(=O)N[C@H]3C(=O)N[C@H](C(=O)N[C@H](C(=O)O)c4cc(O)cc(O)c4-c4cc3ccc4O)[C@H](O)c3ccc(c(Cl)c3)Oc3cc2cc(c3O[C@@H]2O[C@H](CO)[C@@H](O)[C@H](O)[C@H]2O[C@H]2C[C@](C)(N)[C@H](O)[C@H](C)O2)Oc2ccc(cc2Cl)[C@H]1O` [Vancomycin]: the “Size of Clearance of Zone” value in the data set on E. faecalis DSM13591 (antibiotic disk 30 μg) was “R”. For Colistin, the “Size of Clearance of Zone” value with K. pneumoniae 13368 (antibiotic disk 10 μg) came out at 9.5 mm; in the data set with E. coli 13400 (antibiotic disk 10 μg) it was 12 mm; in the data set on A. baumannii NC13421 (antibiotic disk 10 μg), 11 mm.

For the origin of these results see patent US20180369258A1, “ANTI-BACTERIAL COMPOUNDS BASED ON AMINO-GOLD PHOSPHINE COMPLEXES” (priority 2015, published 2018).
